Biological target: T1, AtBBE-like 28 (Arabidopsis thaliana, UniProt Q9FI21)
T1 construct: gene At5g44440; two chains in asymmetric unit
T1 sequence (Q9FI21 28-533): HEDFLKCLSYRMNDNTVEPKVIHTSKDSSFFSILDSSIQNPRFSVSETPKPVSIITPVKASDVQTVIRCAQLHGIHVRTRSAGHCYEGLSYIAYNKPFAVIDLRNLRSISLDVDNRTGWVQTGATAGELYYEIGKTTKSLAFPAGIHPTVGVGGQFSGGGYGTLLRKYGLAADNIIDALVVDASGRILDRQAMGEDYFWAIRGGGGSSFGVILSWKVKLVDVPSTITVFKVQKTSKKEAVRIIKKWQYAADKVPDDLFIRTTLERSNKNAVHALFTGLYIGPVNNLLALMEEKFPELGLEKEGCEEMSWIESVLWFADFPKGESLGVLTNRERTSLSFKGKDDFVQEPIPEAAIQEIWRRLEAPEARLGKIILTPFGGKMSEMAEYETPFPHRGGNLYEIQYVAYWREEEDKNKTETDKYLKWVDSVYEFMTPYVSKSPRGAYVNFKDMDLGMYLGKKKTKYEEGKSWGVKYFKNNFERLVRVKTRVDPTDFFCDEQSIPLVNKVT
Assay: X-ray crystallography ([…] A)
Format: binding
Conditions: covalent; mono-covalent, His111 to flavin 8alpha-position; crystals at 277 K, HEPES pH 7.0, Jeffamine ED 2001

In the case of `Cc1cc2nc3c(=O)[nH]c(=O)nc-3n(C[C@H](O)[C@H](O)[C@H](O)COP(=O)(O)OP(=O)(O)OC[C@H]3O[C@@H](n4cnc5c(N)ncnc54)[C@H](O)[C@@H]3O)c2cc1C` [FAD], the “X-ray crystallography (1.85 A)” value is reported as “the covalent linkage established by the conserved GGHD motif was clearly seen in the crystal structure”.

Reference: paper PMC4898691, “Structure of a Berberine Bridge Enzyme-Like Enzyme with an Active Site Specific to the Plant Family Brassicaceae” (PLoS ONE, 2016)
